Where two headings read alike, the source gives them in different places.
Test system: KM12 cells
Experiment: Cell viability assay (CellTiter-Glo) in KM12 cells
Assay type: cell-based
Conditions: Homo sapiens, 72 h, KM12 cell viability, CellTiter-Glo, 3 days, read-out: IC50

| Structure (SMILES) | IC50 (Table 3) | IC50 (Table 4) | IC50 (Table 2) |
| --- | --- | --- | --- |
| O=C(CN1CCN(c2cccc(-c3cnc4ccc(N5CCC[C@@H]5c5cccc(F)c5)nn34)n2)CC1)NCCCCCNc1cccc2c1C(=O)N(C1CCC(=O)NC1=O)C2=O (stereo partly drawn) [TR-103, N-(5-((2-(2,6-dioxopiperidin-3-yl)-1,3-dioxoisoindolin-4-yl)amino)pentyl)-2-(4-(6-(6-((R)-2-(3-fluorophenyl)pyrrolidin-1-yl)imidazo[1,2-b]pyridazin-3-yl)pyridin-2-yl)piperazin-1-yl)acetamide] | 13.5 nM |  |  |
| O=C1CCC(N2C(=O)c3ccc(NCCN4CCN(c5ccc(C(=O)Nc6n[nH]c7ccc(Cc8cc(F)cc(F)c8)cc67)c(NC6CCOCC6)c5)CC4)cc3C2=O)C(=O)N1 (stereo not drawn) [TR-232, N-(5-(3,5-Difluorobenzyl)-1H-indazol-3-yl)-4-(4-(2-((2-(2,6-dioxopiperidin-3-yl)-1,3-dioxoisoindolin-5-yl)amino)ethyl)piperazin-1-yl)-2-((tetrahydro-2H-pyran-4-yl)amino)benzamide] |  | 2.6 nM |  |
| O=C1CCC(N2C[C@H](c3cccc(CN4CCN(c5cccc(-c6cnc7ccc(N8CCC[C@@H]8c8cccc(F)c8)nn67)n5)CC4)c3)OC2=O)C(=O)N1 (stereo partly drawn) [TR-235, 3-((S)-5-(3-((4-(6-(6-((R)-2-(3-Fluorophenyl)pyrrolidin-1-yl)imidazo[1,2-b]pyridazin-3-yl)pyridin-2-yl)piperazin-1-yl)methyl)phenyl)-2-oxooxazolidin-3-yl)piperidine-2,6-dione] |  | 3.3 nM |  |
| O=C1CCC(N2Cc3ccc(C#CCN4CCN(c5cccc(-c6cnc7ccc(N8CCC[C@@H]8c8cccc(F)c8)nn67)n5)CC4)cc3C2=O)C(=O)N1 (stereo partly drawn) [TR-187, 3-(6-(3-(4-(6-(6-((R)-2-(3-fluorophenyl)pyrrolidin-1-yl)imidazo[1,2-b]pyridazin-3-yl)pyridin-2-yl)piperazin-1-yl)prop-1-yn-1-yl)-1-oxoisoindolin-2-yl)piperidine-2,6-dione] | 18.6 nM |  |  |
| O=C1CCC(N2C(=O)c3cccc(NCCCCCCCC(=O)N4CCN(c5ccc(C(=O)Nc6n[nH]c7ccc(Cc8cc(F)cc(F)c8)cc67)c(NC6CCOCC6)c5)CC4)c3C2=O)C(=O)N1 (stereo not drawn) [CPD-052, N-(5-(3,5-difluorobenzyl)-1H-indazol-3-yl)-4-(4-(8-((2-(2,6-dioxopiperidin-3-yl)-1,3-dioxoisoindolin-4-yl)amino)octanoyl)piperazin-1-yl)-2-((tetrahydro-2H-pyran-4-yl)amino)benzamide] |  |  | 60 nM |
| O=C1CCC(N2C(=O)c3cccc(NCCCCCCC(=O)N4CCN(c5cccc(-c6cnc7ccc(N8CCC[C@@H]8c8cccc(F)c8)nn67)n5)CC4)c3C2=O)C(=O)N1 (stereo partly drawn) [CPD-009, 2-(2,6-Dioxopiperidin-3-yl)-4-((7-(4-(6-(6-((R)-2-(3-fluorophenyl)pyrrolidin-1-yl)imidazo[1,2-b]pyridazin-3-yl)pyridin-2-yl)piperazin-1-yl)-7-oxoheptyl)amino)isoindoline-1,3-dione] |  |  | 35 nM |
| Cc1ncsc1-c1ccc(CNC(=O)[C@@H]2C[C@@H](O)CN2C(=O)[C@@H](NC(=O)CCCCCC(=O)N2CCN(c3ccc(C(=O)Nc4n[nH]c5ccc(Cc6cc(F)cc(F)c6)cc45)c(NC4CCOCC4)c3)CC2)C(C)(C)C)cc1 [CPD-047, (2S,4R)-1-((S)-2-(7-(4-(4-((5-(3,5-difluorobenzyl)-1H-indazol-3-yl)carbamoyl)-3-((tetrahydro-2H-pyran-4-yl)amino)phenyl)piperazin-1-yl)-7-oxoheptanamido)-3,3-dimethylbutanoyl)-4-hydroxy-N-(4-(4-methylthiazol-5-yl)benzyl)pyrrolidine-2-carboxamide] |  |  | 94 nM |
| Cc1ncsc1-c1ccc(CNC(=O)[C@@H]2C[C@@H](O)CN2C(=O)[C@@H](NC(=O)CCC(=O)N2CCN(c3cccc(-c4cnc5ccc(N6CCC[C@@H]6c6cccc(F)c6)nn45)n3)CC2)C(C)(C)C)cc1 [CPD-006, (2S,4R)-1-((S)-2-(4-(4-(6-(6-((R)-2-(3-Fluorophenyl)pyrrolidin-1-yl)imidazo[1,2-b]pyridazin-3-yl)pyridin-2-yl)piperazin-1-yl)-4-oxobutanamido)-3,3-dimethylbutanoyl)-4-hydroxy-N-(4-(4-methylthiazol-5-yl)benzyl)pyrrolidine-2-carboxamide] |  |  | 500 nM |
| O=C1CCC(N2C[C@H](c3ccc(CN4CCN(c5cccc(-c6cnc7ccc(N8CCC[C@@H]8c8cccc(F)c8)nn67)n5)CC4)cc3)OC2=O)C(=O)N1 (stereo partly drawn) [TR-229, 3-((S)-5-(4-((4-(6-(6-((R)-2-(3-Fluorophenyl)pyrrolidin-1-yl)imidazo[1,2-b]pyridazin-3-yl)pyridin-2-yl)piperazin-1-yl)methyl)phenyl)-2-oxooxazolidin-3-yl)piperidine-2,6-dione] |  | 50.8 nM |  |
| Cn1c(=O)n(C2CCC(=O)NC2=O)c2cccc(NCCN3CCN(c4cccc(-c5cnc6ccc(N7CCC[C@@H]7c7cccc(F)c7)nn56)n4)CC3)c21 (stereo partly drawn) [TR-216, 3-[4-[2-[4-[6-[6-[(2R)-2-(3-Fluorophenyl)pyrrolidin-1-yl]imidazo[1,2-b]pyridazin-3-yl]-2-pyridyl]piperazin-1-yl]ethylamino]-3-methyl-2-oxo-benzimidazol-1-yl]piperidine-2,6-dione] |  | 3.6 nM |  |
| O=C1CCC(N2C(=O)c3ccc(NC(=O)C4CCN(c5cccc(-c6cnc7ccc(N8CCC[C@@H]8c8cccc(F)c8)nn67)n5)CC4)cc3C2=O)C(=O)N1 (stereo partly drawn) [TR-215, N-(2-(2,6-Dioxopiperidin-3-yl)-1,3-dioxoisoindolin-5-yl)-1-(6-(6-((R)-2-(3-fluorophenyl)pyrrolidin-1-yl)imidazo[1,2-b]pyridazin-3-yl)pyridin-2-yl)piperidine-4-carboxamide] |  | > 500 nM |  |
| O=C1CCC(N2C(=O)c3cccc(NCCOCCOCCC(=O)N4CCN(c5cccc(-c6cnc7ccc(N8CCC[C@@H]8c8cccc(F)c8)nn67)n5)CC4)c3C2=O)C(=O)N1 (stereo partly drawn) [CPD-028, 2-(2,6-Dioxopiperidin-3-yl)-4-((2-(2-(3-(4-(6-(6-((R)-2-(3-fluorophenyl)pyrrolidin-1-yl)imidazo[1,2-b]pyridazin-3-yl)pyridin-2-yl)piperazin-1-yl)-3-oxopropoxy)ethoxy)ethyl)amino)isoindoline-1,3-dione] |  |  | 4.3 nM |
| O=C(CN1CCN(c2cccc(-c3cnc4ccc(N5CCC[C@@H]5c5cccc(F)c5)nn34)n2)CC1)NCCCNc1ccc2c(c1)C(=O)N(C1CCC(=O)NC1=O)C2=O (stereo partly drawn) [TR-127, N-(3-((2-(2,6-dioxopiperidin-3-yl)-1,3-dioxoisoindolin-5-yl)amino)propyl)-2-(4-(6-(6-((R)-2-(3-fluorophenyl)pyrrolidin-1-yl)imidazo[1,2-b]pyridazin-3-yl)pyridin-2-yl)piperazin-1-yl)acetamide] | 2.7 nM |  |  |
| OC1CCN(c2cc(-c3cccc(-c4cnc5ccc(N6CCC[C@@H]6c6cccc(F)c6)nn45)n3)ccn2)CC1 [GNF-8625, reference compound] | 46.7 nM |  |  |
| O=C1CCC(N2C(=O)c3ccc(NC4CCN(c5cccc(-c6cnc7ccc(N8CCC[C@@H]8c8cccc(F)c8)nn67)n5)CC4)cc3C2=O)C(=O)N1 (stereo partly drawn) [TR-174, 2-(2,6-dioxopiperidin-3-yl)-5-((1-(6-(6-((R)-2-(3-fluorophenyl)pyrrolidin-1-yl)imidazo[1,2-b]pyridazin-3-yl)pyridin-2-yl)piperidin-4-yl)amino)isoindoline-1,3-dione] | 18.7 nM |  |  |

Reference: US12065442B2, “Tropomyosin receptor kinase (TRK) degradation compounds and methods of use” (Cullgen (Shanghai), Inc., priority 2018, dated 2024)
